Experimental findings from patent US9492436B2, “Azabenzimidazole derivatives” (Boehringer Ingelheim International GmbH, priority 2013, dated 2016) are described below.

pEC50: −log10 of the molar value.

T1 sequence (Q13131 whole entry): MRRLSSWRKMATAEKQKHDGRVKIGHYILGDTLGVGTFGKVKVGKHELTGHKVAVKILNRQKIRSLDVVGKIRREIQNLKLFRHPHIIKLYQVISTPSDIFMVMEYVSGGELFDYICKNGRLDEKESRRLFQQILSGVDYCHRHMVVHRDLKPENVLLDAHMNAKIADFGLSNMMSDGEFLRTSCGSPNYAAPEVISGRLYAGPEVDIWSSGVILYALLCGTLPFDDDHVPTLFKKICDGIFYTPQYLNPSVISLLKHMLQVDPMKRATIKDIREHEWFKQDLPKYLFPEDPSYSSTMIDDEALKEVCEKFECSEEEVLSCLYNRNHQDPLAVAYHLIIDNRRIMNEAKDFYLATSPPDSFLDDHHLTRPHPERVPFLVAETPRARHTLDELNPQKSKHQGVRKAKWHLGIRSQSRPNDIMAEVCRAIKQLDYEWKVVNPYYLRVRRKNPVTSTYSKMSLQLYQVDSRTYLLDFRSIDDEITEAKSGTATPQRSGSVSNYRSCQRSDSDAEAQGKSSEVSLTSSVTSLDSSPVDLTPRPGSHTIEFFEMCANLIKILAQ
T1 sequence (Q9Y478 whole entry): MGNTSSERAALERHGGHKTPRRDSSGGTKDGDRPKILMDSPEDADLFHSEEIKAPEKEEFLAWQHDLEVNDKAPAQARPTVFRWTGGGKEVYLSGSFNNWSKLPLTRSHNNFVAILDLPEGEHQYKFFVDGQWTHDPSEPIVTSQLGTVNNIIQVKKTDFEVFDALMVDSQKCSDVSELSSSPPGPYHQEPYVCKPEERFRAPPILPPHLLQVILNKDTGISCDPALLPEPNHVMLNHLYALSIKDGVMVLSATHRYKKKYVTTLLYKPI
T1 sequence (P54619 whole entry partner): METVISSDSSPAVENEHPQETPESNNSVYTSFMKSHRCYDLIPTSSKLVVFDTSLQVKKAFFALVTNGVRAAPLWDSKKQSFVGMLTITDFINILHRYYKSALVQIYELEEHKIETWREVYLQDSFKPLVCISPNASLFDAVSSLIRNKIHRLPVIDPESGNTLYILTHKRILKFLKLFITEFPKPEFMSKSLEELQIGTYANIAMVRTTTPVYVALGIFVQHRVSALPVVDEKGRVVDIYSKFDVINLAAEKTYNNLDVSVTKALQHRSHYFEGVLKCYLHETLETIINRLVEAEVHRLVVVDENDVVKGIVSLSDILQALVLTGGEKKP

The assay addresses T1, AMPK complex 1 (containing alpha1beta1gamma1) (Homo sapiens, UniProt Q13131+Q9Y478).
T1 construct: GST (Glutathion S transferase) (N); made in house; host or cells: baculovirus; virus made in Sf9, expression in High Five cells
The experiment in a line: In vitro AMPK activation assay (ADP-Glo Kinase Assay). The assay is classed as biochemical. As to conditions: 30 μM ATP, 1 μM peptide, 60 min, room temperature. An excerpt: Activated AMPK complex 1 (containing alpha1beta1gamma1) was obtained from baculovirus expression system. The gene encoding AMPK alpha1 was cloned into the pACG2T vector (BD Biosciences) to obtain a N-terminal Glutathion S transferase (GST)-fusion protein. The genes encoding AMPK beta 1 and gamma1 were cloned into the p2Bac dual multiple cloning site vector (Invitrogen) with beta1 under the control of the p10 promoter and gamma1 under the control of the PH promoter. The transfer vectors containing AMPK were co-transfected individually with AcPNV BacMagic-3 DNA (EMD Millipore) in Sf9 cells and the recombinant baculoviruses were harvested after 5 days, followed by 3 rounds of amplification of the virus stock in Sf9 cells. AMPK (alpha1beta1gamma1) was expressed in High Five 5 cells by co-infection of recombinant alpha1 virus and recombinant beta1/gamma1 virus for 72 h at 27° C. Cells were harvested by centrifugation and lysed by 3 freeze/thaw cycles in PBS with 10% glycerol and protease inhibitor cocktail (Roche). After centrifugation AMPK a1b1g1 in the supernatant was captured by immobilized glutathione (GE Healthcare), impurities were washed away with PBS and AMPK alpha1beta1gamma1 was eluted with PBS containing 20 mM reduced gluthathione. The protein buffer was then exchanged to PBS with 10% glycerol and protein concentration was determined by UV absorbance.
The white 384-well Optiplates (cat.no. 6007299) were purchased from PerkinElmer. The V9101 ADP-Glo Kinase Assay and ultra pure ATP (V915A) was purchased from Promega. The substrate for AMPK (NH2-HMRSAMSGLHLVKRR_CONH2) was purchased from Upstate (12-355).
Compounds were tested in either serial dilutions or single dose concentrations. The serial compound dilutions were prepared in 100% DMSO automatically. The final DMSO concentration in the assay was 0.1%.
The Compound Stock Solutions were 10 mM in 100% DMSO. The compounds were solubilised at room temperature.
In the 384-well plates 1.25 ul of test compound in assay buffer was mixed with 1.25 ul of AMPK and 1.25 μl of the peptide (final concentration of 1 μM) and 1.25 μl of ATP (final concentration of 30 μM), both dissolved in assay buffer. This step was followed by an incubation time of 60 min. Then 5 μl of ADP Glo Reagent was added. This was followed by 40 min of incubation. Then 10 μl of Kinase Detection Reagent was admixed. The plates were sealed and after an incubation period of 30 min, the luminescence signal was measured in an Envision reader. All incubation steps were accomplished at room temperature.
Each assay microtiter plate contained wells with vehicle controls instead of compound (0.1% DMSO in water) as reference for the low signal (100% CTL, low signal), and wells with serial dilutions of AMP (final 30 μM) as reference for high signals.
The luminescence signal generated was proportional to the ADP concentration produced and was correlated with AMPK activity. The analysis of the data was performed by the calculation of the percentage of ATP consumption of AMPK in the presence of the test compound compared to the consumption of ATP in the presence of AMPK without compound. (RLU(sample)/RLU(low control))*100[RLU=relative luminescence units]
An activator of the AMPK enzyme gave values above 100% CTL.
EC50 values based on dose response curves are calculated with the XIFIT software using the 4 Parameter Logistic Model or Sigmoidal Dose-Response Model.
In general, pEC50 refers to the EC50 on a negative log10 scale, so that one unit is a factor of ten. In the case of `CS(=N)(=O)c1cnc(-c2ccc(-c3nc4[nH]c(O[C@@H]5CO[C@H]6[C@@H]5OC[C@H]6O)nc4cc3Cl)cc2)nc1` (stereo partly drawn) [Example 49, (3R,3aR,6R,6aR)-6-(6-Chloro-5-(4-(5-(S-methylsulfonimidoyl)pyrimidin-2-yl)phenyl)-3H-imidazo[4,5-b]pyridin-2-yloxy)hexahydrofuro[3,2-b]furan-3-ol], the pEC50 is 7.59.

For `CS(C)(=O)=Nc1ccc(-c2nc3[nH]c(O[C@@H]4CO[C@H]5[C@@H]4OC[C@H]5O)nc3cc2Cl)cc1` [Example 1], the pEC50 is 6.56.

Compound `O=C(N=S1(=O)CCOCC1)c1ccc(-c2nc3[nH]c(O[C@@H]4CO[C@H]5[C@@H]4OC[C@H]5O)nc3cc2Cl)cc1` [Example 21, 4-[6-Chloro-2-((3R,3aR,6R,6aR)-6-hydroxy-hexahydro-furo[3,2-b]furan-3-yloxy)-3H-imidazo[4,5-b]pyridin-5-yl]-N-(4-oxo-4λ6-[1,4]oxathian-4-ylidene)-benzamide] gave a pEC50 of 7.37.

Turning to `N=S1(=O)CC=C(c2ccc(-c3nc4[nH]c(O[C@@H]5CO[C@H]6[C@@H]5OC[C@H]6O)nc4cc3Cl)cc2)CC1` (stereo partly shown) [Example 40], the pEC50 was 7.30.

For the compound `N=S1(=O)CCC(c2ccc(-c3nc4[nH]c(O[C@@H]5CO[C@H]6[C@@H]5OC[C@H]6O)nc4cc3Cl)cc2)CC1` (single isomer, unassigned) [Example 54], the pEC50 is 6.94.

Turning to `CS(C)(=O)=NCc1cccc(-c2ccc(-c3nc4[nH]c(O[C@@H]5CO[C@H]6[C@@H]5OC[C@H]6O)nc4cc3Cl)cc2)c1` [Example 38, N-(4′-(6-Chloro-2-((3R,3aR,6R,6aR)-6-hydroxyhexahydrofuro[3,2-b]furan-3-yloxy)-3H-imidazo[4,5-b]pyridin-5-yl)biphenyl-3-ylmethyl)-S,S-dimethylsulfoximide], the pEC50 is 6.15.

As to `CS(=O)(=Nc1ccc(-c2nc3[nH]c(O[C@@H]4CO[C@H]5[C@@H]4OC[C@H]5O)nc3cc2Cl)cc1)c1ccncc1` (stereo partly drawn) [Example 26, N-(4-(6-Chloro-2-((3R,3aR,6R,6aR)-6-hydroxyhexahydrofuro[3,2-b]furan-3-yloxy)-3H-imidazo[4,5-b]pyridin-5-yl)phenyl)-S-methyl-S-(pyridin-4-yl)-sulfoximide], the pEC50 was 6.84.

Compound `CCS(C)(=O)=Nc1ccc(-c2ccc(-c3nc4[nH]c(O[C@@H]5CO[C@H]6[C@@H]5OC[C@H]6O)nc4cc3Cl)cc2)cc1` (stereo partly drawn) [Example 13, N-(4′-(6-Chloro-2-((3R,3aR,6R,6aR)-6-hydroxyhexahydrofuro[3,2-b]furan-3-yloxy)-3H-imidazo[4,5-b]pyridin-5-yl)biphenyl-4-yl)-S-ethyl-S-methylsulfoximide] showed a negative-log EC50 (pEC50) of 8.40.

As to `CS(=O)(=NC(=O)c1ccc(-c2nc3[nH]c(O[C@@H]4CO[C@H]5[C@@H]4OC[C@H]5O)nc3cc2Cl)cc1)c1cccnc1` (stereo partly drawn) [Example 19, N-4-(6-Chloro-2-((3R,3aR,6R,6aR)-6-hydroxyhexahydrofuro[3,2-b]furan-3-yloxy)-3H-imidazo[4,5-b]pyridin-5-yl)benzoyl-S-methyl-S-(pyridin-3-yl)-sulfoximine], the negative logarithm of the EC50 (pEC50) is 7.26.

As for `CN=S1(=O)CC2CN(c3ccc(-c4nc5[nH]c(O[C@@H]6CO[C@H]7[C@@H]6OC[C@H]7O)nc5cc4Cl)cc3)CC2C1` (stereo partly drawn) [Example 57, (3R,3aR,6R,6aR)-6-{6-Chloro-5-[4-(2-methylimino-2-oxo-hexahydro-2λ^6-thieno[3,4-c]pyrrol-5-yl)-phenyl]-3H-imidazo[4,5-b]pyridin-2-yloxy}-hexahydro-furo[3,2-b]furan-3-ol], the pEC50 is 6.93.

Compound `CS(C)(=O)=Nc1ccc(-c2ncc(-c3nc4[nH]c(O[C@@H]5CO[C@H]6[C@@H]5OC[C@H]6O)nc4cc3Cl)cn2)cc1` [Example 42, N-(4-{5-[6-Chloro-2-((3R,3aR,6R,6aR)-6-hydroxyhexahydrofuro[3,2-b]furan-3-yloxy)-3H-imidazo[4,5-b]pyridin-5-yl]-pyrimidin-2-yl}-phenyl)-S,S-dimethylsulfoximide] gave a pEC50 of 6.39.

Turning to `CS(C)(=O)=Nc1ccc2c(n1)CN(c1ccc(-c3nc4[nH]c(O[C@@H]5CO[C@H]6[C@@H]5OC[C@H]6O)nc4cc3Cl)cc1)C2` [Example 44, N-(6-{4-[6-Chloro-2-((3R,3aR,6R,6aR)-6-hydroxyhexahydrofuro[3,2-b]furan-3-yloxy)-3H-imidazo[4,5-b]pyridin-5-yl]-phenyl}-6,7-dihydro-5H-pyrrolo[3,4-b]pyridin-2-yl)-S,S-dimethylsulfoximide], the negative-log EC50 (pEC50) was 7.18.

Turning to `CS(=O)(=NC(=O)c1ccc(-c2nc3[nH]c(O[C@@H]4CO[C@H]5[C@@H]4OC[C@H]5O)nc3cc2Cl)cc1)C1CCOCC1` (stereo partly drawn) [Example 20, N-4-(6-Chloro-2-((3R,3aR,6R,6aR)-6-hydroxyhexahydrofuro[3,2-b]furan-3-yloxy)-3H-imidazo[4,5-b]pyridin-5-yl)benzoyl-S-methyl-S-(tetrahydro-2H-pyran-4-yl)-sulfoximine], the negative-log EC50 (pEC50) was 6.11.

Take `CS(=N)(=O)[C@H]1CC[C@@H](c2ccc(-c3nc4[nH]c(O[C@@H]5CO[C@H]6[C@@H]5OC[C@H]6O)nc4cc3Cl)cc2)CC1` (stereo partly drawn) [Example 33, cis-(3R,3aR,6R,6aR)-6-(6-Chloro-5-[4-{4-(S-methylsulfonimidoyl)-cyclohexyl}-phenyl]-3H-imidazo[4,5-b]pyridin-2-yloxy)-hexahydro-furo[3,2-b]furan-3-ol]: the pEC50 was 6.58.

For `CS(C)(=O)=NCc1ccc(-c2ccc(-c3nc4[nH]c(O[C@@H]5CO[C@H]6[C@@H]5OC[C@H]6O)nc4cc3Cl)cc2)nc1` [Example 48, N-(6-(4-(6-Chloro-2-((3R,3aR,6R,6aR)-6-hydroxyhexahydrofuro[3,2-b]furan-3-yloxy)-3H-imidazo[4,5-b]pyridin-5-yl)phenyl)pyridin-3-ylmethyl)-S,S-dimethylsulfoximide], the pEC50 was 7.80.

`CCS(=O)(CC)=Nc1ccc(-c2ccc(-c3nc4[nH]c(O[C@@H]5CO[C@H]6[C@@H]5OC[C@H]6O)nc4cc3Cl)cc2)cc1` [Example 11, N-(4′-(6-Chloro-2-((3R,3aR,6R,6aR)-6-hydroxyhexahydrofuro[3,2-b]furan-3-yloxy)-3H-imidazo[4,5-b]pyridin-5-yl)biphenyl-4-yl)-S,S-diethylsulfoximide] gave a pEC50 of 8.52.

As to `CN=S(C)(=O)c1ccc(N2CCN(c3nc4[nH]c(O[C@@H]5CO[C@H]6[C@@H]5OC[C@H]6O)nc4cc3Cl)CC2)cc1` (stereo partly drawn) [Example 29, (3R,3aR,6R,6aR)-6-(6-Chloro-5-(4-(4-(N,S-dimethylsulfonimidoyl)phenyl)piperazin-1-yl)-3H-imidazo[4,5-b]pyridin-2-yloxy)hexahydrofuro[3,2-b]furan-3-ol], the pEC50 is 6.14.

`CS(C)(=O)=NC(=O)c1ccc(-c2nc3[nH]c(O[C@@H]4CO[C@H]5[C@@H]4OC[C@H]5O)nc3cc2Cl)cc1` [Example 3]: the pEC50 is 6.40.

Compound `CS(C)(=O)=NCc1cc(-c2ccc(-c3nc4[nH]c(O[C@@H]5CO[C@H]6[C@@H]5OC[C@H]6O)nc4cc3Cl)cc2)ccn1` [Example 53] showed a pEC50 of 7.25.
